The text below walks through data of article PMC3753754, “Andrographis paniculata Extract and Andrographolide Modulate the Hepatic Drug Metabolism System and Plasma Tolbutamide Concentrations in Rats” (Evidence-based Complementary and Alternative Medicine : eCAM, 2013).

Molecules are shown by their SMILES. Marks after values point to notes of the source that are not given here.

The nature of data set [1]: Plasma aminotransferases (AST, ALT) of treated rats. The data set is classed as in vivo, Sprague-Dawley rats. The procedure: All animals were killed by exsanguination via the abdominal aorta while under carbon dioxide (CO2/O2, 70%/30%) anesthesia. Heparin was used as the anticoagulant. Plasma was separated from the blood by centrifugation (1750 ×g) at 4°C for 20 min. The liver from each animal was excised, weighed, and stored at −80°C. This research has received ethical approval from the institutional animal ethics committee of China Medical University, Taichung, Taiwan.
(§1) Plasma glucose was determined by use of enzymatic kits purchased from Audit Diagnostics Co. (Cork, Ireland). Plasma aspartate aminotransferase (AST) and alanine aminotransferase (ALT) activities were measured by using commercial kits purchased from Randox Laboratories (Antrim, UK).

The test system of a further data set is Cytochrome b5. The data set is described as follows: Cytochrome b5 content in liver microsomes of treated rats. The data set is classed as in vivo. Particulars: rat liver microsomes; oral 2 g/kg APE or 50 mg/kg AND daily for 5 days. The procedure: Liver was homogenized (1 : 4, w/v) in an ice-cold potassium phosphate buffer (pH 7.4) containing 7.4 mM K2HPO4, 2.6 mM KH2PO4, 1.15% KCl, and 1 mM phenylmethylsulfonyl fluoride (PMSF). Tissue homogenates were centrifuged at 10,000 ×g for 30 min at 4°C. The resulting supernatant was then centrifuged at 105,000 ×g for 1 h at 4°C. The microsomes thus obtained were washed several times to get rid of possible tolbutamide contamination and this can avoid tolbutamide interference of CYP activity, and the microsomes were then suspended in potassium phosphate buffer (pH 7.7) containing 7.5 mM K2HPO4, 14.5 mM KH2PO4, and 1 mM EDTA. […] Metabolites of each CYP enzyme reaction were determined by LC/MS as reported previously. The contents of total CYP and cytochrome b5 were quantified by the method of Omura and Sato [29]. Enzyme activity is expressed as picomoles of metabolite formed per minute per milligram of protein. The NADPH-CYP reductase activity was measured as described by Phillips and Langdon with the use of cytochrome c as the substrate. The microsomal protein concentration was determined by using a Coomassie Plus protein assay kit (Pierce, Rockford, IL, USA).
A general note: Liver microsomes are a subcellular fraction often used to study metabolism.

The test system of another data set is CYP2C6/11. The data set is described as follows: Hepatic CYP2C6 and CYP2C11 protein expression in high-fat diet-induced obese mice. The format is in vivo, C57BL/6 mice. The note with it: 2 g/kg APE or 50 mg/kg AND daily for 5 days. The procedure:
(§2) Eleven-month-old high-fat diet-fed (45% of energy from fat; Research Diet Inc., New Brunswick, NJ) C57BL/6 mice were obtained from the National Health Research Institute (Miaoli, Taiwan). Control mice were orally administered 0.5% methyl cellulose (10 mL/kg). […] After the 5th daily dose, the mice were deprived of food overnight. On day 6, a 20 mg/kg oral dose of tolbutamide, as a solution in Cremophor EL/ethanol/water (30/10/60, v/v/v), was administered to each mouse. Thirty minutes later, a 1 g/kg dose of glucose, as a solution in water, was administered orally according to the method described by Zong et al.. Serial blood samples were collected up to 8 h after the glucose dose from each mouse. The animals were then killed by exsanguination and the livers collected.
Aliquots of microsomal protein (10 μg) were electrophoresed in an SDS-polyacrylamide gel, and proteins were then transferred to polyvinylidene fluoride membranes. After blocking, membranes were hybridized with antibodies to CYP1A1, CYP1A2, CYP2C6, CYP2C11, CYP2D1, CYP2E1, CYP3A1, and CYP3A2.

In data set [2] the test system is UDP-glucuronosyltransferase. The data set is described as follows: Microsomal UGT activity (p-nitrophenol substrate) in liver of treated rats. The format is in vivo. The note with it: rat liver; oral 2 g/kg APE or 50 mg/kg AND daily for 5 days. On the procedure: The microsomal UGT activity was determined by using p-nitrophenol as the substrate. The rate of formation of p-nitrophenol glucuronic acid was measured by HPLC/UV [31]. GST activity was determined spectrophotometrically by measuring the formation rate of GSH conjugates.

Data set [3] is described as follows: Glucose tolerance test after tolbutamide in high-fat diet-induced obese mice. The data set is classed as in vivo, C57BL/6 mice. On the procedure:
as §2, §1

The mark [4] stands for this setting: rats, oral 2 g/kg APE or 50 mg/kg AND daily for 5 days, mean ± SD, n = 5.
Setting [5] is: obese mice, 2 g/kg APE or 50 mg/kg AND for 5 days, day 6 tolbutamide 20 mg/kg oral, 30 min later glucose 1 g/kg oral.

Consider `C=C1CC[C@@H]2[C@](C)(CO)[C@H](O)CC[C@@]2(C)[C@@H]1C/C=C1/C(=O)OC[C@H]1O` [andrographolide, Andrographolide], for which, in data set [1] (2 g/kg APE and 50 mg/kg AND, plasma AST and ALT), the “Effect on rat liver function” value is recorded as “no deleterious effect”. In data set [1] (setting [4]), the “Plasma aminotransferases, ALT” value came to 15.8 ± 8.2 U/L and the “Plasma aminotransferases, AST” value came to 27.7 ± 4.4 U/L. Further, the “Cytochrome b5 content” value with Cytochrome b5 was found to be 327 ± 79 pmol/mg protein. Moreover, the “Hepatic expression of CYP2C6/11” value in the data set on CYP2C6/11 is reported as “induced”. Also, the UDP-glucuronosyltransferase activity in data set [2] is reported as 21.1 ± 6.5^a nmol/min/mg protein. Further, in data set [3] (high-fat diet-induced obese mice treated with APE or andrographolide), the “Hypoglycemic effect of tolbutamide in a glucose tolerance test” value is on record as “not changed”. Besides, in data set [3] (setting [5]), the “Plasma glucose, time 0 h” value is on record as 80 ± 7^a mg/dL; the “Plasma glucose, time 0.25 h” value is 152 ± 37^a mg/dL; the “Plasma glucose, time 0.5 h” value is 124 ± 28^ab mg/dL; the “Plasma glucose, time 1 h” value is reported as 99 ± 29 mg/dL. In data set [3] (setting [5]), the “Plasma glucose, time 2 h” value is 88 ± 28 mg/dL; the “Plasma glucose, time 4 h” value was 76 ± 17^a mg/dL; the “Plasma glucose, time 8 h” value is 80 ± 17^a mg/dL. In data set [3] (obese mice, APE or andrographolide for 5 days, fasted overnight), the “Fasting blood glucose level” value is 80 ± 7 mg/dL. In addition, in data set [3] (obese mice, APE or andrographolide for 5 days, then tolbutamide and glucose load), the “Area under the plasma glucose concentration versus time curve (AUC0–8 h)” value turned out to be 171 ± 42 mg·h/dL.
